Test results published in patent publication US20090062355A1, “Pharmaceutical Product” (Takeda Pharmaceutical Company Limited, priority 2006, published 2009).
Where two headings read alike, the source gives them in different places.

Test system: Human Peripheral Blood Mononuclear Cell
Assay: Suppressive action on production of mediator from human peripheral blood mononuclear cell
Type: cell-based
Conditions: LPS 10 ng/mL and INFα 1 U/mL, overnight, ELISA
Protocol: Peripheral blood mononuclear cells were separated from three healthy subjects by a conventional method, suspended in RPMI1640 medium supplemented with 10% inactivated fetal bovine serum, and plated on a 96 well microplate at 8×10^4 cells/well. Test compound 2 (compound 8′ of Reference Example D7), LPS (final concentration 10 ng/mL) and INFα (final concentration 1 U/mL) were added, cultured overnight, and TNF-α, IL-6 and IL-8 in the culture supernatant was quantified using a commercially available ELISA kit. Test substance was dissolved in N,N-dimethylformamide to 10 mM, diluted with the medium to 10-fold concentration of the final concentration and 1/10 thereof was added. Test compound 2 suppressed production of TNFα, IL-6 and IL-8 at an equivalent IC50. In addition, no difference in the suppressive activity was found in the peripheral blood mononuclear cells of the three subjects.

IC50 (subject A, read-out: IC50, IL-6 production): 36 nM
IC50 (subject A, read-out: IC50, IL-8 production): 83 nM
IC50 (subject A, read-out: IC50, TNF-α production): 43 nM
IC50 (subject B, read-out: IC50, IL-6 production): 51 nM
IC50 (subject B, read-out: IC50, IL-8 production): 130 nM
IC50 (subject B, read-out: IC50, TNF-α production): 39 nM
IC50 (subject C, read-out: IC50, IL-6 production): 35 nM
IC50 (subject C, read-out: IC50, IL-8 production): 81 nM
IC50 (subject C, read-out: IC50, TNF-α production): 32 nM
Structure (SMILES): CCOC(=O)C1=CCOCC1S(=O)(=O)Nc1ccc(F)cc1Cl (stereo not drawn) [test compound 2, ethyl 3-[(2-chloro-4-fluorophenyl)sulfamoyl]-3,6-dihydro-2H-pyran-4-carboxylate]
